Test results taken from the NIST ThermoML archive (doi:10.1021/acs.jced.9b00145).

Test: xn = mol fraction of the nth substance listed
Conditions: 100 kPa, Liquid, Vibrating tube method, x2 = 0.3333

NC(N)=O [urea] + C[N+](C)(C)CCO.[Cl-]
Conditions | mass density [kg/m3]
293.15 K | 1199.42
298.15 K | 1196.68
303.15 K | 1193.96
308.15 K | 1191.19
313.15 K | 1188.52
318.15 K | 1185.87
323.15 K | 1183.2
328.15 K | 1180.53
333.15 K | 1177.87
338.15 K | 1175.22
